Key:
[1] = test system: beet armyworm (Spodoptera exigua); assay: Insecticidal test on treated lepidopteran diet, beet armyworm; assay type: in vivo; details: 120 h, second-instar larvae on treated diet, 8 wells, dose of 50 mg/cm^2 [sic] (2000 ppm, 50 μL), dead insects counted 5 days after treatment, read-out: AVG LAPHEG 50 (percent control, beet army worm)
Method: (§1) The compounds identified in Table 1 were prepared according to the previous methods and were tested against beet armyworm and corn earworm as follows:
(§2) Insecticidal Test for Corn Earworm (Helicoverpa zea) and Beet Armyworm (Spodoptera exigua).
(§3) To prepare test solution, the test compound was formulated at 2000 ppm solution as 4 mg/2 mL of 9 acetone:1 tap water. 50 μL of the 2000 ppm (equivalent to 50 μg/cm^2 dose on diet surface area) test solution was pipetted upon the surface of 1 mL of lepidopteran diet (Southland Multi-Species Lepidopteran Diet) contained in each of eight wells per insect species (one well=1 replication). A second-instar corn earworm and beet armyworm was placed upon the treated diet in each well once the solvent had air-dried. Trays containing the treated diet and larvae were covered and then held in a growth chamber at 25° C., 50-55% RH, and 16 hr light:8 hr dark for 5 days. Observation were conducted 5 days after treatment and infestation. The number of dead insects of 8 per species per treatment was then determined and the results are given in Table 1 as a percent control at a dose of […].
(§4) Keys to the table: Mass spectral data were obtained using liquid chromatography mass spectroscopy (LC-MS). The masses are detected using electrospray ionization (ESI) and reported as Mol Ion (M+H, M−H); AVG LAPHEG 50 refers to activity against beet army worm (Spodoptera exigua) as defined above; AVG HELIZE 50 refers to activity against corn ear worm (Helicoverpa zea) as described above.

[2] = test system: corn earworm (Helicoverpa zea); assay: Insecticidal test on treated lepidopteran diet, corn earworm; assay type: in vivo; details: 120 h; second-instar larvae on treated diet, 8 wells; dose of 50 mg/cm^2 [sic] (2000 ppm, 50 μL); dead insects counted 5 days after treatment; read-out: AVG HELIZE 50 (percent control, corn ear worm)
Method: as §1, §2, §3, §4

Structure (SMILES)	pest or weed control at 2000 µg/mL [1] [%]	pest or weed control at 2000 µg/mL [2] [%]
FC(F)C(F)(F)Oc1ccc(/C=N/Nc2nc(Nc3ccc(OC(F)(F)F)cc3)nc(N3CCOCC3)n2)cc1 [Compound 1, (4-Morpholin-4-yl-6-{N′-[4-(1,1,2,2-tetrafluoroethoxy)benzylidene]hydrazino}-1,3,5-triazin-2-yl)-(4-trifluoromethoxyphenyl)amine]	100	100
Fc1ccc(Nc2nc(NCc3ccc(Cl)nc3)nc(N/N=C/c3ccc(OC(F)(F)F)cc3)n2)cc1C(F)(F)F [Compound 2, N-(6-Chloropyridin-3-ylmethyl)-N′-(4-fluoro-3-trifluoromethylphenyl)-6-{N′-[1-(4-trifluoromethoxyphenyl)-methylidene]-hydrazino}-[1,3,5]triazine-2,4-diamine]	100	100
Fc1ccc(Nc2ncnc(N/N=C/c3ccc(OC(F)(F)F)cc3)n2)cc1C(F)(F)F [Compound 3, (4-Fluoro-3-trifluoromethylphenyl)-(4-{N′-[1-(4-trifluoromethoxyphenyl)-methylidene]-hydrazino}-[1,3,5]triazin-2-yl)-amine]	100	100
FC(F)(F)Oc1ccc(/C=N/Nc2nc(Nc3ccc(OC(F)(F)F)cc3)nc(N3CCOCC3)n2)cc1 [Compound 4]	100	100
C/C(=N\Nc1nc(Nc2ccc(OC(F)(F)F)cc2)nc(N2CCOCC2)n1)c1cccc(C#N)c1 [Compound 5]	100	100
O=C1CN(c2nc(N/N=C/c3ccc(OC(F)(F)F)cc3)nc(Nc3ccc(OC(F)(F)F)cc3)n2)CCN1 [Compound 6]	100	100
O=C1CN(c2nc(N/N=C/c3cccc(C(F)(F)F)c3)nc(Nc3ccc(OC(F)(F)F)cc3)n2)CCN1 [Compound 7]	100	100
CCOc1nc(N/N=C/c2ccc(OC(F)(F)F)cc2)nc(Nc2ccc(OC(F)(F)F)cc2)n1 [Compound 8]	25	25
CCOc1nc(N/N=C/c2cccc(C(F)(F)F)c2)nc(Nc2ccc(OC(F)(F)F)cc2)n1 [Compound 10]	13	0
CCOc1nc(N/N=C/c2ccc(F)cc2)nc(Nc2ccc(OC(F)(F)F)cc2)n1 [Compound 11]	13	100
CCOc1nc(N/N=C/c2ccc(OC(F)(F)F)cc2)nc(Nc2cccc(C(F)(F)F)c2)n1 [Compound 12]	100	100
CCOc1nc(N/N=C/c2cccc(C(F)(F)F)c2)nc(Nc2cccc(C(F)(F)F)c2)n1 [Compound 13]	0	75
CCOc1nc(N/N=C/c2ccc(OC)cc2)nc(Nc2cccc(C(F)(F)F)c2)n1 [Compound 14]	25	13
COCCNc1nc(N/N=C/c2ccc(OC(F)(F)F)cc2)nc(Nc2ccc(OC(F)(F)F)cc2)n1 [Compound 15]	100	88
CCNc1nc(N/N=C/c2ccc(OC(F)(F)F)cc2)nc(Nc2ccc(OC(F)(F)F)cc2)n1 [Compound 16]	13	0
COCCNc1nc(N/N=C/c2ccc(F)cc2)nc(Nc2ccc(OC(F)(F)F)cc2)n1 [Compound 17]	50	63
CCNc1nc(N/N=C/c2ccc(F)cc2)nc(Nc2ccc(OC(F)(F)F)cc2)n1 [Compound 18]	75	38
COCCNc1nc(N/N=C/c2ccc(OC(F)(F)F)cc2)nc(Nc2cccc(C(F)(F)F)c2)n1 [Compound 19]	100	75
FC(F)(F)Oc1ccc(/C=N/Nc2nc(NCCN3CCOCC3)nc(Nc3ccc(OC(F)(F)F)cc3)n2)cc1 [Compound 21]	100	100
COCCN(C)c1nc(N/N=C/c2ccc(OC(F)(F)F)cc2)nc(Nc2ccc(OC(F)(F)F)cc2)n1 [Compound 22]	50	13
CCOC(=O)CN(C)c1nc(N/N=C/c2ccc(OC(F)(F)F)cc2)nc(Nc2ccc(OC(F)(F)F)cc2)n1 [Compound 23]	25	0
COCC(C)Nc1nc(N/N=C/c2ccc(OC(F)(F)F)cc2)nc(Nc2ccc(OC(F)(F)F)cc2)n1 (stereo not shown) [Compound 24]	100	100

Structure (SMILES)	pest or weed control at 2000 µg/mL [1] [%]	pest or weed control at 2000 µg/mL [2] [%]
CCOCCNc1nc(N/N=C/c2ccc(OC(F)(F)F)cc2)nc(Nc2ccc(OC(F)(F)F)cc2)n1 [Compound 25]	100	100
CCOC(=O)CNc1nc(N/N=C/c2ccc(OC(F)(F)F)cc2)nc(Nc2ccc(OC(F)(F)F)cc2)n1 [Compound 26]	50	100
FC(F)(F)COc1nc(N/N=C/c2cccc(Cl)c2)nc(Nc2ccc(OC(F)(F)F)cc2)n1 [Compound 27]	100	100
FC(F)C(F)(F)Oc1cccc(/C=N/Nc2nc(Nc3ccc(OC(F)(F)F)cc3)nc(OCC(F)(F)F)n2)c1 [Compound 28]	100	100
FC(F)(F)COc1nc(N/N=C/c2cccc(Br)c2)nc(Nc2ccc(OC(F)(F)F)cc2)n1 [Compound 29]	100	100
FC(F)(F)COc1nc(N/N=C/c2ccc(Cl)c(Cl)c2)nc(Nc2ccc(OC(F)(F)F)cc2)n1 [Compound 30]	100	100
Fc1ccccc1/C=N/Nc1nc(Nc2ccc(OC(F)(F)F)cc2)nc(OCC(F)(F)F)n1 [Compound 31]	100	100
FC(F)(F)COc1nc(N/N=C/c2ccccc2C(F)(F)F)nc(Nc2ccc(OC(F)(F)F)cc2)n1 [Compound 32]	100	100
Fc1cc(/C=N/Nc2nc(Nc3ccc(OC(F)(F)F)cc3)nc(OCC(F)(F)F)n2)ccc1Cl [Compound 33]	100	100
FC(F)(F)COc1nc(N/N=C/c2ccccc2Br)nc(Nc2ccc(OC(F)(F)F)cc2)n1 [Compound 34]	100	100
FC(F)(F)COc1nc(N/N=C/c2c(Cl)cccc2Cl)nc(Nc2ccc(OC(F)(F)F)cc2)n1 [Compound 35]	100	100
FC(F)(F)COc1nc(N/N=C/c2ccccc2OC(F)(F)F)nc(Nc2ccc(OC(F)(F)F)cc2)n1 [Compound 36]	100	100
FC(F)(F)Oc1ccc(Nc2nc(N/N=C/c3cccc(Cl)c3)nc(N3CCOCC3)n2)cc1 [Compound 37]	75	100
FC(F)(F)Oc1ccc(Nc2nc(N/N=C/c3cccc(Br)c3)nc(N3CCOCC3)n2)cc1 [Compound 38]	0	100
FC(F)(F)Oc1ccc(Nc2nc(N/N=C/c3ccc(Cl)c(Cl)c3)nc(N3CCOCC3)n2)cc1 [Compound 39]	88	100
FC(F)(F)Oc1ccc(Nc2nc(N/N=C/c3ccc(Cl)cc3Cl)nc(N3CCOCC3)n2)cc1 [Compound 40]	25	0
FC(F)(F)Oc1ccc(Nc2nc(N/N=C/c3ccccc3C(F)(F)F)nc(N3CCOCC3)n2)cc1 [Compound 41]	13	0
Fc1cc(/C=N/Nc2nc(Nc3ccc(OC(F)(F)F)cc3)nc(N3CCOCC3)n2)ccc1Cl [Compound 42]	88	100
FC(F)(F)Oc1ccc(Nc2nc(N/N=C/c3ccccc3Br)nc(N3CCOCC3)n2)cc1 [Compound 43]	13	0
FC(F)(F)Oc1ccc(Nc2nc(N/N=C/c3c(Cl)cccc3Cl)nc(N3CCOCC3)n2)cc1 [Compound 44]	13	0
FC(F)(F)Oc1ccc(Nc2nc(N/N=C/c3ccccc3OC(F)(F)F)nc(N3CCOCC3)n2)cc1 [Compound 45]	38	13
CC1CN(c2nc(N/N=C/c3ccc(OC(F)(F)F)cc3)nc(Nc3ccc(F)c(C(F)(F)F)c3)n2)CC(C)O1 (stereo not shown) [Compound 46]	100	100

— patent US8188273B2, “Insecticidal (1,3,5)-triazinyl phenyl hydrazones” (Dow AgroSciences, LLC., priority 2007, dated 2012)
